Measured values reported in publication PMC6981117, “Redox-coupled proton pumping drives carbon concentration in the photosynthetic complex I” (Nature Communications, 2020).

Target: T1, NDH-1MS (NDH-1_3), photosynthetic complex I; NdhF3 subunit (Thermosynechococcus vestitus, UniProt Q8DKF5)
T1 construct: native complex from T. elongatus thylakoid membranes, C-terminal TwinStrep tag on CupS; NdhV not resolved; with CO2 hydration protein CupA; CO2 uptake protein CupS; NAD(P)H-quinone oxidoreductase chain 4-3; NAD(P)H-quinone oxidoreductase subunit 1; NAD(P)H-quinone oxidoreductase subunit 2; NAD(P)H-quinone oxidoreductase subunit 3; NAD(P)H-quinone oxidoreductase subunit 4L; NAD(P)H-quinone oxidoreductase subunit 6; NAD(P)H-quinone oxidoreductase subunit L; NAD(P)H-quinone oxidoreductase subunit S; NAD(P)H-quinone oxidoreductase subunit H; NAD(P)H-quinone oxidoreductase subunit I; NAD(P)H-quinone oxidoreductase subunit J; NAD(P)H-quinone oxidoreductase subunit K; NAD(P)H-quinone oxidoreductase subunit M; NAD(P)H-quinone oxidoreductase subunit N; NAD(P)H-quinone oxidoreductase subunit O
T1 sequence (Q8DKF5 1-611): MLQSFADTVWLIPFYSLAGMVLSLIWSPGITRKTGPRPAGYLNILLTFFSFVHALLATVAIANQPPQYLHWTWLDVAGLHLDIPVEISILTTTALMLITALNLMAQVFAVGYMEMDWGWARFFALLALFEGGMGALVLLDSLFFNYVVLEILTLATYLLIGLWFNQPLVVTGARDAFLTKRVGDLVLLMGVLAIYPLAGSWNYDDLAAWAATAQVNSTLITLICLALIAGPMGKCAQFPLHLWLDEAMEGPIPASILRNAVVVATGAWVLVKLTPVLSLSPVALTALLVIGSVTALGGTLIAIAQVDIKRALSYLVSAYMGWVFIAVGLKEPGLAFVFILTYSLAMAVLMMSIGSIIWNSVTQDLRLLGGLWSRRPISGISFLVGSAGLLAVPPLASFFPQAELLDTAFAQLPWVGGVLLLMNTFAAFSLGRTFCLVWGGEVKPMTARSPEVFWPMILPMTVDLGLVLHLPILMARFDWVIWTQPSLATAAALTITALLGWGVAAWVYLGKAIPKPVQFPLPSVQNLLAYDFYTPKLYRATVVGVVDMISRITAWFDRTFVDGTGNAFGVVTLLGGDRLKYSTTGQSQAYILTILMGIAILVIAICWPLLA
Test: cryo-EM structure, […] Å
Type: binding
Settings: co-purified; motif with chlorophyll a in NdhF3

CC1=C(/C=C/C(C)=C/C=C/C(C)=C/C=C/C=C(C)/C=C/C=C(C)/C=C/C2=C(C)CCCC2(C)C)C(C)(C)CCC1 [β-carotene]
cryo-EM structure, 3.2 Å: NdhF3 binds a chlorophyll a/β-carotene motif that connects via His469 of NdhF3
